Data published in ChEMBL document CHEMBL5143680, “Cytotoxic Bromine- and Iodine-Containing Cytochalasins Produced by the Mangrove Endophytic Fungus Phomopsis sp. QYM-13 Using the OSMAC Approach” (J Nat Prod, 2022).

Experiments:
MDA-MB-435 = assay: Cytotoxicity against human MDA-MB-435 cells measured after 72 hrs by MTT assay; type: functional, cell-based; details: MDA-MB-435, 72 h
HepG2 = assay: Cytotoxicity against human HepG2 cells measured after 72 hrs by MTT assay; type: functional, cell-based; details: HepG2, 72 h
A549 = assay: Cytotoxicity against human A549 cells measured after 72 hrs by MTT assay; type: functional, cell-based; details: A549, 72 h
MDA-MB-231 = assay: Cytotoxicity against human MDA-MB-231 cells measured after 72 hrs by MTT assay; type: functional, cell-based; details: MDA-MB-231, 72 h
SNB-19 = assay: Cytotoxicity against human SNB-19 cells measured after 72 hrs by MTT assay; type: functional, cell-based; details: SNB-19, 72 h
[1] = Cytotoxicity against African green monkey Vero cells measured after 72 hrs by MTT assay; type: toxicity, cell-based; details: African green monkey (Chlorocebus sabaeus)

Row | SMILES | IC50 (MDA-MB-435) [µM] | IC50 (HepG2) [µM] | IC50 (A549) [µM] | IC50 (MDA-MB-231) [µM] | IC50 (SNB-19) [µM] | IC50 at 72 h [1] [µM]
1 | C=C1[C@@H](C)[C@H]2[C@H](Cc3ccccc3)NC(=O)[C@]23[C@H](OC(C)=O)[C@@H]2O[C@H]2[C@](C)(O)C[C@@H](C)C/C=C/[C@H]3[C@@H]1O | 42 | > 50 | > 50 | > 50 | > 50 | > 50
2 | CC(=O)O[C@@H]1/C=C/[C@](C)(O)C[C@@H](C)C/C=C/[C@H]2C=C(C)[C@@H](C)[C@H]3[C@H](Cc4ccccc4)NC(=O)[C@]321 | 34 | > 50 | > 50 | > 50 | > 50 | > 50
3 | C=C1/C=C/[C@@H](OC(C)=O)[C@@]23C(=O)N[C@@H](Cc4ccccc4)[C@@H]2[C@H](C)C(=C)[C@@H](O)[C@@H]3/C=C/C[C@H](C)C1 | 11 | > 50 | > 50 | 35 | 16 | 14
4 | CC1=C[C@@H]2/C=C/C[C@H](C)C[C@H](C)[C@@H]3O[C@H]3C(=O)[C@]23C(=O)N[C@@H](Cc2ccccc2)[C@@H]3[C@@H]1C | 44 | > 50 | > 50 | > 50 | > 50 | > 50
5 | C=C1[C@@H](C)[C@H]2[C@H](Cc3ccccc3)NC(=O)[C@]23[C@H](OC(C)=O)/C=C/C(C)=C\[C@@H](C)C/C=C/[C@H]3[C@@H]1O | 12 | > 50 | > 50 | 45 | 42 | 25
6 | CC1=C[C@@H]2/C=C/C[C@H](C)C[C@@](C)(O)/C=C/[C@@H](O)[C@]23C(=O)N[C@@H](Cc2ccccc2)[C@@H]3[C@@H]1C | 38 | > 50 | 38 | > 50 | > 50 | 44
7 | C=C1[C@@H](C)[C@H]2[C@H](Cc3ccccc3)NC(=O)[C@@]23[C@@H]([C@@H]2[C@H](/C=C(/C)C[C@@H](C)C[C@H]2Br)[C@H]3OC(C)=O)[C@@H]1O | 7.4 | > 50 | > 50 | 44 | > 50 | 18
8 | C=C1[C@@H](C)[C@H]2[C@H](Cc3ccccc3)NC(=O)[C@]23[C@H](O)/C=C/[C@](C)(O)C[C@@H](C)C/C=C/[C@H]3[C@@H]1O | 4.9 | > 50 | > 50 | 31 | 6.8 | > 50
9 | C=C1[C@@H](C)[C@H]2[C@H](Cc3ccccc3)NC(=O)[C@@]23[C@H]2[C@@H]4[C@H](C(C)=C[C@@H](C)C[C@H]4O[C@H]12)[C@H]3OC(C)=O | 36 | > 50 | > 50 | > 50 | > 50 | 34
10 | CC1=C[C@@H]2/C=C/C[C@H](C)C[C@@](C)(O)[C@@H]3O[C@H]3C(=O)[C@]23C(=O)N[C@@H](Cc2ccccc2)[C@@H]3[C@@H]1C | 32 | > 50 | 28 | 11 | > 50 | 29
11 | CC(=O)O[C@@H]1/C=C/[C@](C)(O)C[C@@H](C)C/C=C/[C@H]2C=C(C(=O)O)[C@@H](C)[C@H]3[C@H](Cc4ccccc4)NC(=O)[C@]321 | > 50 | > 50 | > 50 | > 50 | > 50 | > 50
12 | C=C1[C@@H](C)[C@H]2[C@H](Cc3ccccc3)NC(=O)[C@@]23[C@H]2[C@@H]4[C@H](C(C)=C[C@@H](C)C[C@H]4O[C@H]12)[C@@H](I)[C@H]3O | > 50 | > 50 | > 50 | > 50 | > 50 | 39
13 | CC(=O)O[C@@H]1/C=C/[C@](C)(O)C[C@@H](C)C/C=C/[C@H]2C=C(CO)[C@@H](C)[C@H]3[C@H](Cc4ccccc4)NC(=O)[C@]321 | 8.2 | > 50 | 38 | 42 | 6.9 | 22
14 | C=C1[C@@H](C)[C@H]2[C@H](Cc3ccccc3)NC(=O)[C@]23[C@H](OC(C)=O)/C=C/[C@](C)(O)C[C@@H](C)C/C=C/[C@H]3[C@@H]1O | 0.2 | > 50 | > 50 | 42 | 26 | 40
15 | C[C@H]1C/C=C/[C@H]2C=C(CO)[C@@H](C)[C@H]3[C@H](Cc4ccccc4)NC(=O)[C@]32[C@H](O)/C=C/[C@](C)(O)C1 | 25 | > 50 | > 50 | > 50 | > 50 | > 50
16 | C=C1[C@@H](C)[C@H]2[C@H](Cc3ccccc3)NC(=O)[C@@]23[C@H]2[C@@H]4[C@H](C(C)=C[C@@H](C)C[C@H]4O[C@H]12)[C@H]3O | > 50 | > 50 | > 50 | > 50 | > 50 | > 50
17 | C=C1[C@@H](C)[C@H]2[C@H](Cc3ccccc3)NC(=O)[C@@]23[C@@H]([C@@H]2[C@H](/C=C(/C)C[C@@H](C)C[C@H]2I)[C@H]3OC(C)=O)[C@@H]1O | 47 | 47 | 33 | 43 | > 50 | 29
18 | C=C1[C@@H](C)[C@H]2[C@H](Cc3ccccc3)NC(=O)[C@@]23[C@@H]([C@@H]2[C@H](/C=C(/C)C[C@@H](C)C[C@H]2O)[C@H]3OC(C)=O)[C@@H]1O | 45 | > 50 | > 50 | > 50 | > 50 | > 50
